Each structure is given as a SMILES string.

For the assay, the target named is T1, recombinant human MIF (Homo sapiens, UniProt P14174).
T1 construct: purchased RayBiotech
T1 sequence (P14174 2-115 limits assumed): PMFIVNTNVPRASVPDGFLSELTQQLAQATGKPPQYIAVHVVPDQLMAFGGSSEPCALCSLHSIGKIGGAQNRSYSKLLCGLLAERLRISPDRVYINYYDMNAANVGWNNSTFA
The experiment in a line: MIF tautomerase assay using 4-hydroxyphenylpyruvate (4-HPP). It counts as biochemical. The note with it: compounds tested at 1 nM; 300 ng/mL rhMIF; 4-HPP substrate; compared to positive control with recombinant human MIF alone. How it is done:
Tautomerase activity was assessed using 4-hydroxyphenylpyruvate (4-HPP) as substrate. 4-HPP was dissolved in 50 mM ammonium acetate at pH 6.0, allowed to equilibrate to room temperature and stored at −20° C. 300 ng/mL of recombinant human MIF (rhMIF; RayBiotech, Le Perray en Yvelines, France) and tested compounds were pre-incubated at room temperature for 15 min. Tautomerase activity was assessed at room temperature, by adding 4-HHP to a 96-well plate containing 0.435 M boric acid at pH 6.6 and rhMIF with or without (positive control) tested compounds (1 nM), and by measuring the increase in absorbance at 320 nm over 10-360 s using the 2103 EnVision™ Multilabel Plate Readers (PerkinElmer, Villebon-sur-Yvette, France). Compounds were tested at 1 nM. The assay was replicated 3 times independently.
Compounds 38, 39 and 41 of the present invention were tested and compared to their respective “C═O” isosteres 38-O, 39-O and 41-O. Results are also compared to prototypical MIF inhibitor ISO-1.
Results are presented in table 2 below and represent the percentage of MIF tautomerase activity inhibition as compared to the positive control with recombinant human MIF alone.

For the compound `COc1ccccc1Cn1c(=O)oc2ccc(C)cc21` [Compound 41-O], the inhibition at 0.001 µM is 31%. Consider `Cc1ccc2oc(=O)n(Cc3ccccc3)c2c1` [Compound 39-O], for which the inhibition at 0.001 µM amounted to 12%.

The record behind these values is US10160732B2, “MIF inhibitors” (MIFCARE, priority 2014, dated 2018).
